Results reported in patent publication EP0343954B1, “Aromatic steroid 5-alpha-reductase inhibitors” (SMITHKLINE BEECHAM CORPORATION, priority 1988, dated 1989).

T1: human steroid 5-α-reductase (Homo sapiens, UniProt P31213)
T1 construct: an aliquot of prostatic particulate solution to a final volume of 0.5 ml of 50 mM sodium citrate, pH 5.0; from tissue; host or cells: hyperplastic human prostate; washed 140,000 x g particulate fraction
T1 sequence (P31213 1-254): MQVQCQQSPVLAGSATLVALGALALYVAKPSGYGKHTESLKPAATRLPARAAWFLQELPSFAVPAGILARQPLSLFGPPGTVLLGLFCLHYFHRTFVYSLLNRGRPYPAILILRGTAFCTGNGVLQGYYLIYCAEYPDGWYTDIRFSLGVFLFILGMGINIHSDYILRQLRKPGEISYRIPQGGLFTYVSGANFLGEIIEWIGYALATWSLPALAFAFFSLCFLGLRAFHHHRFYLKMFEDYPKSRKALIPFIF

B1: human steroid 5-α-reductase (Homo sapiens) (protein)
chain: T1 sequence (P31213 1-254)

Substrate: C[C@]12CC[C@H]3[C@@H](CCC4=CC(=O)CC[C@@]43C)[C@@H]1CC[C@@H]2O
Assay: purified protein, by the assay type
Settings: other: substrate of steroid 5-α-reductase, used in equation 1

With B1 the Km was 4.5 µM.

System: steroid 5-α-reductase
Assay: In vivo inhibition of steroid 5-α-reductase: DHT levels in rat ventral prostate (HPLC, radioimmunoassay)
Parameters: species or system Male Charles River CD rats
Settings: rats, dose of 20mg/kg, four hours after compound administration, p<.15
Method: One of the compounds of the invention, 17β-(N-tert-butylcarboxamide)-estr-1,3,5(10)-triene-3-carboxylic acid, also was tested for its in vivo potency in inhibiting steroid 5-α-reductase activity. Male Charles River CD rats, 48 days old, weighing approximately 200 gm were administered this compound dissolved in propylene glycol and diluted in normal saline. Following compound administration the animals were sacrificed, the ventral prostates were excised, and DHT levels were measured by the following procedure.
Prostate tissue was excised, trimmed, weighed, minced and washed with phosphate buffer. The tissue then was homogenized in phosphate buffer and extracted by addition of ethyl acetate and mixing on an orbital mixer for forty-five minutes. The ethyl acetate was evaporated, the residue was reconstituted in ethanol, and was centrifuge filtered using […] filter paper. The components then were separated using reverse-phase HPLC collecting the DHT fraction. The fraction was reduced to dryness and reconstituted in standard DHT assay buffer available from Amersham. DHT levels then were measured using standard techniques such as radioimmunoassay.
In the compound-treated rats, prostatic DHT levels were decreased forty percent relative to vehicle-treated controls (p<.15) four hours after compound administration at a dose of 20mg/kg.

In the case of `CC(C)(C)NC(=O)[C@H]1CC[C@H]2[C@@H]3CCc4cc(C(=O)O)ccc4[C@H]3CC[C@]12C` [17β-(N-tert-Butylcarboxamide)-estr-1,3,5(10)-triene-3-carboxylic Acid], the “prostatic DHT levels decreased relative to vehicle-treated controls” value is reported as “forty”.

Molecular target: T1, human steroid 5-α-reductase
Assay: Inhibition of human prostatic steroid 5-α-reductase: [14C]-testosterone conversion by prostatic particulate, Dixon plot
Type: biochemical
Settings: not given
Method: The potency of several compounds of the invention was tested for potency in inhibiting human steroid 5-α-reductase using tissue from hyperplastic human prostates. In determining potency in inhibiting the human enzyme, the following procedure was employed:
Frozen human prostates were thawed and minced into small pieces ( 5mm³). The tissue was homogenized in 3 to 5 volumes of 20 mM potassium phosphate, pH 6.5, buffer containing 0.33 M sucrose, 1 mM dithiothreitol, and 50 µM NADPH with a Brinkmann Polytron (Sybron Corporation, Westbury, New York). The solution was subjected to sonication for 3 to 5 minutes with a Sonifier (Branson Sonic Power Co.) followed by hand homogenization in a glass-to-glass Dounce homogenizer (Kontes Glass Company, Vineland, New Jersey).
Prostatic particles were obtained by differential centrifugation at 600 or 1000 x g for 20 minutes and 140,000 x g for 60 minutes at 4°C. The pellet obtained from the 140,000 x g centrifugation was washed with 5 to 10 tissue volumes of the buffer described above and recentrifuged at 140,000 x g. The resulting pellet was suspended in 20 mM potassium phosphate buffer, pH 6.5, containing 20% glycerol, 1 mM dithiothreitol, and 50 µM NADPH. The suspended particulate solution was stored at -80°C.
To each tube was added buffer, 20 µl of 10 mM NADPH and an aliquot of prostatic particulate solution to a final volume of 0.5 ml of 50 mM sodium citrate, pH 5.0. […] The organic layer was removed to a second test tube and evaporated to dryness in vacuo. The residue was dissolved in 20 to 30 µl chloroform, spotted on an individual lane of a 20 x 20 cm prechannelled silica gel TLC plate (Si 250F-PA, Baker Chemical) and developed twice with acetone:chloroform (1:9). The radiochemical content in the bands of the substrate and the products was determined with a BIOSCAN Imaging Scanner (Bioscan, Inc., Washington, D.C.). The percent of recovered radiolabel converted to product was calculated, from which enzyme activity was determined.
The experimentally obtained data was computer fitted to a linear function by plotting the reciprocal of the enzyme activity (1/velocity) against the variable inhibitor concentration (Dixon, M. (1953), Biochem. J., 55, 170).

Point of comparison: `CC(C)N(C(=O)[C@H]1CC[C@H]2[C@@H]3CCc4cc(C(=O)O)ccc4[C@H]3CC[C@]12C)C(C)C` [17β-(N,N-Diisopropylcarboxamide)-estr-1,3,5(10)-triene-3-carboxylic Acid], Ki 19 nM. Against it:
- Cc1cc2c(cc1C(=O)O)CC[C@@H]1[C@@H]2CC[C@]2(C)[C@@H](C(=O)N(C(C)C)C(C)C)CC[C@@H]12 [17β-(N,N-Diisopropylcarboxamide)-2-methyl-estr-1,3,5(10)-triene-3-carboxylic Acid] — 3-fold higher, 57 nM
- CC(C)N(C(=O)[C@H]1CC[C@H]2[C@@H]3C=Cc4cc(C(=O)O)ccc4[C@H]3CC[C@]12C)C(C)C [17β-(N,N-Diisopropylcarboxamide)-estr-1,3,5(10),6-tetraene-3-carboxylic Acid] — 1.6-fold higher, 30 nM
- CC(C)N(C(=O)C1=CC[C@H]2[C@@H]3CCc4cc(C(=O)O)ccc4[C@H]3CC[C@]12C)C(C)C [17β-(N,N-Diisopropylcarboxamide)-estr-1,3,5(10),16-tetraene-3-carboxylic Acid] — 3.7-fold higher, 70 nM
- CC(C)N(C(=O)[C@H]1CC[C@H]2[C@@H]3CCc4cc(CC(=O)O)ccc4[C@H]3CC[C@]12C)C(C)C [17β-(N,N-diisopropylcarboxamide)-estr-1,3,5(10)-triene-3-acetic acid] — within 1.5-fold, 20 nM
- Cc1c(C(=O)O)ccc2c1CC[C@@H]1[C@@H]2CC[C@]2(C)[C@@H](C(=O)N(C(C)C)C(C)C)CC[C@@H]12 [17β-(N-N-Diisopropylcarboxamide)-4-methyl-estr-1,3,5(10)-triene-3-carboxylic Acid] — 14-fold higher, 270 nM
- CC(C)N(C(=O)[C@H]1CC[C@H]2c3ccc4cc(C(=O)O)ccc4c3CC[C@]12C)C(C)C [17β-(N-N-Diisopropylcarboxamide)-estr-1,3,5(10),-6,8-pentaene-3-carboxylic Acid] — 2.1-fold higher, 40 nM
- CC(C)(C)NC(=O)C1=CC[C@H]2[C@@H]3CCc4cc(C(=O)O)ccc4[C@H]3CC[C@]12C [17β-(N-tert-Butylcarboxamide)-estr-1,3,5(10),-16-tetraene-3-carboxylic Acid] — 3.2-fold higher, 60 nM
- CC(C)(C)NC(=O)[C@H]1CC[C@H]2[C@@H]3CCc4cc(C(=O)O)ccc4[C@H]3CC[C@]12C [17β-(N-tert-Butylcarboxamide)-estr-1,3,5(10)-triene-3-carboxylic Acid] — 2.3-fold higher, 43 nM
